Experimental data taken from ChEMBL document CHEMBL1155511, “Discovery of a new potent bisamide FMS kinase inhibitor” (Bioorg Med Chem Lett, 2010).

Legend:
[1] = target: Tyrosine-protein kinase ABL1 (Homo sapiens) (UniProt P00519); test: Inhibition of ABL1 at 1 uM
[2] = target: ALK tyrosine kinase receptor (Homo sapiens) (UniProt Q9UM73); test: Inhibition of ALK at 1 uM
[3] = target: Aurora kinase A (Homo sapiens) (UniProt O14965); test: Inhibition of Aurora A at 1 uM
[4] = target: Tyrosine-protein kinase BTK (Homo sapiens) (UniProt Q06187); test: Inhibition of BTK at 1 uM
[5] = target: Calcium/calmodulin-dependent protein kinase type 1 (Homo sapiens) (UniProt Q14012); test: Inhibition of CamK1 at 1 uM
[6] = target: Cyclin-dependent kinase 5/CDK5 activator 1 (Homo sapiens) (UniProt Q00535+Q15078); test: Inhibition of CDK5/p25 at 1 uM; format: protein-complex assay
[7] = target: Serine/threonine-protein kinase Chk1 (Homo sapiens) (UniProt O14757); test: Inhibition of CHK1 at 1 uM
[8] = target: Mast/stem cell growth factor receptor Kit (Homo sapiens) (UniProt P10721); test: Inhibition of cKIT1 at 1 uM
[9] = target: Proto-oncogene tyrosine-protein kinase Src (Homo sapiens) (UniProt P12931); test: Inhibition of c-SRC at 1 uM
[10] = target: Epidermal growth factor receptor (Homo sapiens) (UniProt P00533); test: Inhibition of EGFR at 1 uM
[11] = target: Ephrin type-A receptor 1 (Homo sapiens) (UniProt P21709); test: Inhibition of EPHA1 at 1 uM
[12] = target: Fibroblast growth factor receptor 1 (Homo sapiens) (UniProt P11362); test: Inhibition of FGFR1 at 1 uM
[13] = target: Receptor-type tyrosine-protein kinase FLT3 (Homo sapiens) (UniProt P36888); test: Inhibition of FLT3 at 1 uM
[14] = target: Tyrosine-protein kinase Fyn (Homo sapiens) (UniProt P06241); test: Inhibition of FYN at 1 uM
[15] = target: Glycogen synthase kinase-3 beta (Homo sapiens) (UniProt P49841); test: Inhibition of GSK3-beta at 1 uM
[16] = target: Homeodomain-interacting protein kinase 2 (Homo sapiens) (UniProt Q9H2X6); test: Inhibition of HIPK2 at 1 uM
[17] = target: Insulin-like growth factor 1 receptor (Homo sapiens) (UniProt P08069); test: Inhibition of IGF1R at 1 uM
[18] = target: Inhibitor of nuclear factor kappa-B kinase subunit beta (Homo sapiens) (UniProt O14920); test: Inhibition of IKK-beta at 1 uM
[19] = target: Insulin receptor (Homo sapiens) (UniProt P06213); test: Inhibition of IR at 1 uM
[20] = target: Tyrosine-protein kinase JAK3 (Homo sapiens) (UniProt P52333); test: Inhibition of JAK3 at 1 uM
[21] = target: Mitogen-activated protein kinase 8 (Homo sapiens) (UniProt P45983); test: Inhibition of JNK1alpha1 at 1 uM
[22] = target: T1, Vascular endothelial growth factor receptor 2 (Homo sapiens, UniProt P35968); test: Inhibition of KDR at 1 uM
[23] = target: Tyrosine-protein kinase Lck (Homo sapiens) (UniProt P06239); test: Inhibition of LCK at 1 uM
[24] = target: Serine/threonine-protein kinase MARK1 (Homo sapiens) (UniProt Q9P0L2); test: Inhibition of MARK1 at 1 uM
[25] = target: Dual specificity mitogen-activated protein kinase kinase 1 (Homo sapiens) (UniProt Q02750); test: Inhibition of MEK1 at 1 uM
[26] = target: Mitogen-activated protein kinase kinase kinase 9 (Homo sapiens) (UniProt P80192); test: Inhibition of MLK1 at 1 uM
[27] = target: Serine/threonine-protein kinase mTOR (Homo sapiens) (UniProt P42345); test: Inhibition of mTOR at 1 uM
[28] = target: Ribosomal protein S6 kinase beta-1 (Homo sapiens) (UniProt P23443); test: Inhibition of p70S6K at 1 uM
[29] = target: Serine/threonine-protein kinase PAK 2 (Homo sapiens) (UniProt Q13177); test: Inhibition of PAK2 at 1 uM
[30] = target: [Pyruvate dehydrogenase (acetyl-transferring)] kinase isozyme 1, mitochondrial (Homo sapiens) (UniProt Q15118); test: Inhibition of PDK1 at 1 uM
[31] = target: Serine/threonine-protein kinase pim-1 (Homo sapiens) (UniProt P11309); test: Inhibition of PIM1 at 1 uM
[32] = Inhibition of PKA at 1 uM
[33] = Inhibition of PKBalpha; conditions: concentration not given here
[34] = target: Protein kinase C alpha type (Homo sapiens) (UniProt P17252); test: Inhibition of PKCalpha at 1 uM
[35] = target: Serine/threonine-protein kinase PLK1 (Homo sapiens) (UniProt P53350); test: Inhibition of PLK1 at 1 uM
[36] = target: Protein-tyrosine kinase 2-beta (Homo sapiens) (UniProt Q14289); test: Inhibition of PYK2 at 1 uM
[37] = target: Proto-oncogene tyrosine-protein kinase receptor Ret (Homo sapiens) (UniProt P07949); test: Inhibition of RET at 1 uM
[38] = target: Rho-associated protein kinase 1 (Homo sapiens) (UniProt Q13464); test: Inhibition of ROCK1 at 1 uM
[39] = target: Proto-oncogene tyrosine-protein kinase ROS (Homo sapiens) (UniProt P08922); test: Inhibition of ROS1 at 1 uM
[40] = target: Mitogen-activated protein kinase 14 (Homo sapiens) (UniProt Q16539); test: Inhibition of SAPK2A at 1 uM
[41] = target: Tyrosine-protein kinase SYK (Homo sapiens) (UniProt P43405); test: Inhibition of SYK at 1 uM
[42] = target: Tyrosine-protein kinase Tec (Homo sapiens) (UniProt P42680); test: Inhibition of TEC at 1 uM
[43] = target: Ribosomal protein S6 kinase alpha-1 (Homo sapiens) (UniProt Q15418); test: Inhibition of RSK1 at 1 uM
[44] = target: T2, Macrophage colony-stimulating factor 1 receptor (Homo sapiens, UniProt P07333); test: Inhibition of FMS
[45] = target: T1, Vascular endothelial growth factor receptor 2; test: Inhibition of KDR
[46] = target: T2, Macrophage colony-stimulating factor 1 receptor; test: Inhibition of FMS at 1 uM

T1 sequence (P35968 whole entry): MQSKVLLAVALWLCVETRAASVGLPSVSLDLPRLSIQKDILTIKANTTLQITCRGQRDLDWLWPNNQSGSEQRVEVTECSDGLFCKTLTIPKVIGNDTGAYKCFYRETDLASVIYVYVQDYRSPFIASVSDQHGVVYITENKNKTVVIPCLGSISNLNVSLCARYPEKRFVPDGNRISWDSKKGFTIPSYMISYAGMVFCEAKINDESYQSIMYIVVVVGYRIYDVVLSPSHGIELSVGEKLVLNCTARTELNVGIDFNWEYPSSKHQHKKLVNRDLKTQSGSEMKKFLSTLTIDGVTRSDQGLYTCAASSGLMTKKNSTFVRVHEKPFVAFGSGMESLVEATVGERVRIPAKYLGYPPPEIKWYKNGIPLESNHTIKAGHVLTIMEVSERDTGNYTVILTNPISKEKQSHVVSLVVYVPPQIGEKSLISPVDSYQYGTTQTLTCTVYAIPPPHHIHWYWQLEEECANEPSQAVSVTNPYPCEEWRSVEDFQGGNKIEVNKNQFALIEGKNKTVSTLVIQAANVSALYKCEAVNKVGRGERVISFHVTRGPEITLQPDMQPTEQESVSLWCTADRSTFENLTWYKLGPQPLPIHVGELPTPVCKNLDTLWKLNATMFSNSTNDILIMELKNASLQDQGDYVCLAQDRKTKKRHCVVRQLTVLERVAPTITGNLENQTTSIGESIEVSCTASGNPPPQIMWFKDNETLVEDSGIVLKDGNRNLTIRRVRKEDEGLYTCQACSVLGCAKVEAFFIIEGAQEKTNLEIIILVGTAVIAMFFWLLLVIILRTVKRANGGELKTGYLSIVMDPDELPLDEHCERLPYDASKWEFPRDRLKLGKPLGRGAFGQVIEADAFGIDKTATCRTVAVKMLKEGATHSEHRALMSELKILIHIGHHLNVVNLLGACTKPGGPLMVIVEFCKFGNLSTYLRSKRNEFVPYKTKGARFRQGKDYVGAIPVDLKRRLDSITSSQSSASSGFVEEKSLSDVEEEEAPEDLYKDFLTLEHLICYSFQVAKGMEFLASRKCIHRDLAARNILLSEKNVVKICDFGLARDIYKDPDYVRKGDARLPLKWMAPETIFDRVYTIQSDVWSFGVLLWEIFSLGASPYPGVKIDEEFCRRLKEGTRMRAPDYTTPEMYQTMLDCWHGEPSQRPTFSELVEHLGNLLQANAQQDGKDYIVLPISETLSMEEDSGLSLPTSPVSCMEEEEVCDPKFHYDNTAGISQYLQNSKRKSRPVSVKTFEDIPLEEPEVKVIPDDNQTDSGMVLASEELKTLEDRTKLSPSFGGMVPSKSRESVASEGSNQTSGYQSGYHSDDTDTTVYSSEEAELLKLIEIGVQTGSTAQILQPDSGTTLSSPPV
T2 sequence (P07333 whole entry, looked up): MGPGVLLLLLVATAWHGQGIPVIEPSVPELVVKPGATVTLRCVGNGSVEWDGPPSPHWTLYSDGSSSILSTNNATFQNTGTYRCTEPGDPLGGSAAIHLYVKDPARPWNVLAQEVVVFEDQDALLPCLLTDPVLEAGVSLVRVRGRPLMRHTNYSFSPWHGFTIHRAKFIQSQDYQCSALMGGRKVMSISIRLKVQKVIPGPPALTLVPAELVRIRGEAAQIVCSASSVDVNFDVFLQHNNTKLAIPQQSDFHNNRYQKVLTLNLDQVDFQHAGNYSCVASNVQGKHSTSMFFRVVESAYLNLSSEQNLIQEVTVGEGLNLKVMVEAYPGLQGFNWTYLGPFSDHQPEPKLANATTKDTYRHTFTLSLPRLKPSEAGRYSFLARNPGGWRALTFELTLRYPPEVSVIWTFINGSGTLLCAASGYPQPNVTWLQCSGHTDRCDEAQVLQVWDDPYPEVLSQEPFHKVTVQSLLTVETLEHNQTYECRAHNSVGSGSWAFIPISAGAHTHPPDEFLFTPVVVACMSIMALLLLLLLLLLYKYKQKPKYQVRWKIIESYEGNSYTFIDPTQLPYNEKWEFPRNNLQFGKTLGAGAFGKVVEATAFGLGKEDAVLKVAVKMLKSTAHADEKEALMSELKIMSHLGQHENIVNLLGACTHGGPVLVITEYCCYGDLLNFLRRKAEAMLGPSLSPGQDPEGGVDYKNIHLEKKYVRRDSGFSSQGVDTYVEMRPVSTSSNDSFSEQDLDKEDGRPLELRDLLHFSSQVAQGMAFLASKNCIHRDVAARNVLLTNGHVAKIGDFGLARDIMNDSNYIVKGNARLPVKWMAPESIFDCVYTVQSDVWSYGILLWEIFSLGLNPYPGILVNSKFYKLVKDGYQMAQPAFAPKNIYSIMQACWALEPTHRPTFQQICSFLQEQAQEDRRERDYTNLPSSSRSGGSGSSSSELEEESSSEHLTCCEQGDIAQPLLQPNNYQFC
ALK tyrosine kinase receptor (Homo sapiens), sequence (Q9UM73 19-1620 limits assumed): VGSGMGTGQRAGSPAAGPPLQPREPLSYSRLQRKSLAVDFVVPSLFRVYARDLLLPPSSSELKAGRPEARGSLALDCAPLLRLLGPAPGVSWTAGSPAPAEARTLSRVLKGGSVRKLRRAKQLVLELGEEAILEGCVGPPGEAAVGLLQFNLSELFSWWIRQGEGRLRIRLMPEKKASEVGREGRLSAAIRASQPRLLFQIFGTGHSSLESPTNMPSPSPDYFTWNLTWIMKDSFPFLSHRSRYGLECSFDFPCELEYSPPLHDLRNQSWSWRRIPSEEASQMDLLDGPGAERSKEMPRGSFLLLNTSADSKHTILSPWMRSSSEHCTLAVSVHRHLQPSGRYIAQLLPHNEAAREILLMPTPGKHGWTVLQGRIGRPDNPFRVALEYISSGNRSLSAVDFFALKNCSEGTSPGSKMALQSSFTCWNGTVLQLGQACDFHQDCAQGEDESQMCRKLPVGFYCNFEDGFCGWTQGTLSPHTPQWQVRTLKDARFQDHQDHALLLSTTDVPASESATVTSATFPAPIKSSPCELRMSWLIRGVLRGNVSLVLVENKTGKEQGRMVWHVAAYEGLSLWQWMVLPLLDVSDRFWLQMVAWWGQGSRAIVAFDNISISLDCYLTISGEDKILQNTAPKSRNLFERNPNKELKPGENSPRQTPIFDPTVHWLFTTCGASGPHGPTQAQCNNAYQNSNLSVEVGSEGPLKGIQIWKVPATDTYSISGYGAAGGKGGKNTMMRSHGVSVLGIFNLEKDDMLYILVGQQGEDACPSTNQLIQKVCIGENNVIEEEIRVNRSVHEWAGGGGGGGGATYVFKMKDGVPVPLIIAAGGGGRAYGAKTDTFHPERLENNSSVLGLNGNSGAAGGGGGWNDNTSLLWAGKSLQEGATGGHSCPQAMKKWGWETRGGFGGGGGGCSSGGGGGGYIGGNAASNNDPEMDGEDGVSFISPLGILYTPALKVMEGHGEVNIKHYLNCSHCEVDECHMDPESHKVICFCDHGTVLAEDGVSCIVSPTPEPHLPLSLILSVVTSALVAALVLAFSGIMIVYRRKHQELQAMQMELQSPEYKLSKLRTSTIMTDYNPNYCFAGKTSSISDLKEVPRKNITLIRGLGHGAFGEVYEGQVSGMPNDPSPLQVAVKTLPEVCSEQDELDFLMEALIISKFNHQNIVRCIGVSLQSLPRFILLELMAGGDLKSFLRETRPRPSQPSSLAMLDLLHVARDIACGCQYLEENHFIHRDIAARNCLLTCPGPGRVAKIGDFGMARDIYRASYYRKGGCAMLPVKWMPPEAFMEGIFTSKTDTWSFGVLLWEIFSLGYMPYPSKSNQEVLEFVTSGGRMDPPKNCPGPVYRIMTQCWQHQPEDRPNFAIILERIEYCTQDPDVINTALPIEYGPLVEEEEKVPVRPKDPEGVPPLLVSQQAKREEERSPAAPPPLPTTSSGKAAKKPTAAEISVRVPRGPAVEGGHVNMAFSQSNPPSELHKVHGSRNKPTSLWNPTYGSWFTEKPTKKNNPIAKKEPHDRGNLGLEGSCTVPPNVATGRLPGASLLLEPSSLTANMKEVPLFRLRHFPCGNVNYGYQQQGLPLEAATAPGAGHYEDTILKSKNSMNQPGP
Serine/threonine-protein kinase Chk1 (Homo sapiens), sequence (O14757 whole entry): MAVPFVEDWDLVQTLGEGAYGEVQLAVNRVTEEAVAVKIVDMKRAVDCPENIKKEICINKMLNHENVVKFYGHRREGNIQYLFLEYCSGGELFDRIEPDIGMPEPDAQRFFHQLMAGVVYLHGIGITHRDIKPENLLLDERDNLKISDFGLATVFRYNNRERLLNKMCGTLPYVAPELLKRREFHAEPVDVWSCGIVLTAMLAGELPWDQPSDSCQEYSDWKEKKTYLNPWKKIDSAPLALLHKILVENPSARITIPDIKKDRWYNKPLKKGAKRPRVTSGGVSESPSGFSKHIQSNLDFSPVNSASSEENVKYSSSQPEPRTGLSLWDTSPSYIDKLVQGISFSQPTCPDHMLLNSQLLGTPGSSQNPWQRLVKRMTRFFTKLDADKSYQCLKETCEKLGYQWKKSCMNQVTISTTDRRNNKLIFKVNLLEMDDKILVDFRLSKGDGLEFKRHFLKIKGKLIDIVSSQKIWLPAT

## O=C(Nc1cccc(-n2ccc3c(NC(=O)c4ccccc4)nccc32)c1)c1ccc(N2CCOCC2)c(C(F)(F)F)c1
[1]
  inhibition: 41%
[2]
  inhibition: 11%
[3]
  inhibition: 21%
[4]
  inhibition: 7%
[5]
  inhibition: -1%
[6]
  inhibition: 8%
[7]
  inhibition: -8%
[8]
  inhibition: -2%
[9]
  inhibition: 10%
[10]
  inhibition: 1%
[11]
  inhibition: 9%
[12]
  inhibition: 6%
[13]
  inhibition: 16%
[14]
  inhibition: 44%
[15]
  inhibition: 4%
[16]
  inhibition: 9%
[17]
  inhibition: 10%
[18]
  inhibition: 23%
[19]
  inhibition: 2%
[20]
  inhibition: 17%
[21]
  inhibition: -1%
[22]
  inhibition: 71%
[23]
  inhibition: 33%
[24]
  inhibition: -9%
[25]
  inhibition: 12%
[26]
  inhibition: -1%
[27]
  inhibition: -10%
[28]
  inhibition: 7%
[29]
  inhibition: 2%
[30]
  inhibition: -1%
[31]
  inhibition: 10%
[32]
  inhibition: 16%
[33]
  inhibition: 18%
[34]
  inhibition: -5%
[35]
  inhibition: 4%
[36]
  inhibition: 23%
[37]
  inhibition: 57%
[38]
  inhibition: 3%
[39]
  inhibition: 19%
[40]
  inhibition: 25%
[41]
  inhibition: 6%
[42]
  inhibition: 14%
[43]
  inhibition: 8%
[44]
  IC50: 0.096 µM
[45]
  IC50: 1.06 µM
[46]
  inhibition: 90%
